According to the supplement of paper PMC10307832:

Key:
Experiment in all cases: relative viability (nuclei count vs DMSO), 5 days (fraction); higher = more cells survive
[1] = compound: CC1=C(C(=NN1)C)CC2=C(C3=C(S2)N(C(=O)N(C3=O)C)CC(C)C)C(=O)N4C[C@@H](CO4)O + COc1cccc2cc(-c3nc([C@H]4CC[C@H](C(=O)O)CC4)n4ncnc(N)c34)[nH]c12 [OSI-027] (partner 0.5 µM)
Method in brief: (§1)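 Relative viability divides the nuclei count in treated wells by that in vehicle wells. Lung cancer cell lines were seeded in 1536-well plates, dosed by pin tool the next day, and fixed and stained after 5 days in one step with final 0.05% Triton X-100, 1% formaldehyde and 1 ug/ml Hoechst. Dosing was a single drug or a fixed anchor-drug dose plus five library-drug doses (not always all listed) in √10 steps, and values are medians of duplicate plates imaged at 4×.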

[2] = compound: CC1=C(C(=NN1)C)CC2=C(C3=C(S2)N(C(=O)N(C3=O)C)CC(C)C)C(=O)N4C[C@@H](CO4)O + C[C@]1(O)C[C@@H](c2nc(-c3ccc4ccc(-c5ccccc5)nc4c3)c3c(N)nccn32)C1 [Linsitinib] (partner 1 µM)
Method in brief: as §1

[3] = compound: CC1=C(C(=NN1)C)CC2=C(C3=C(S2)N(C(=O)N(C3=O)C)CC(C)C)C(=O)N4C[C@@H](CO4)O + N=C(N)NC(=N)NCCc1ccccc1 [Phenformin] (partner 250 µM)
Method in brief: as §1

[4] = compound: Cc1ccccc1C(C(=O)NC1CCCCC1)N(C(=O)Cn1ccnc1C)c1cccc(F)c1 [IDH-C35] + CCNC(=O)c1noc(-c2cc(C(C)C)c(O)cc2O)c1-c1ccc(CN2CCOCC2)cc1 [Luminespib] (partner 0.01 µM)
Method in brief: as §1

| Cell Line | relative viability ([1]; first compound 0.0025 µM) | relative viability ([1]; first compound 0.007906 µM) | relative viability ([1]; first compound 0.025 µM) | relative viability ([1]; first compound 0.07906 µM) | relative viability ([1]; first compound 0.25 µM) | relative viability ([2]; first compound 0.0025 µM) | relative viability ([2]; first compound 0.007906 µM) | relative viability ([2]; first compound 0.025 µM) | relative viability ([2]; first compound 0.07906 µM) | relative viability ([2]; first compound 0.25 µM) | relative viability ([3]; first compound 0.0025 µM) | relative viability ([3]; first compound 0.007906 µM) | relative viability ([3]; first compound 0.025 µM) | relative viability ([3]; first compound 0.07906 µM) | relative viability ([3]; first compound 0.25 µM) | relative viability ([4]; first compound 0.08 µM) | relative viability ([4]; first compound 0.253 µM) | relative viability ([4]; first compound 0.8 µM) | relative viability ([4]; first compound 2.53 µM) | relative viability ([4]; first compound 8 µM) |
| --- | --- | --- | --- | --- | --- | --- | --- | --- | --- | --- | --- | --- | --- | --- | --- | --- | --- | --- | --- | --- |
| HCC-44 | 0.676 | 0.376 | 0.413 | 0.516 | 0.747 | 0.855 | 0.713 | 0.629 | 0.684 | 0.74 | 0.263 | 0.223 | 0.142 | 0.208 | 0.225 | 1.06 | 1.06 | 0.986 | 1.04 | 1.05 |
| HCC-827 | 0.812 | 0.793 | 0.756 | 0.759 | 0.952 | 1.01 | 1.01 | 0.96 | 0.949 | 0.963 | 0.379 | 0.408 | 0.425 | 0.407 | 0.399 | 0.788 | 0.526 | 0.472 | 0.569 | 0.516 |
| NCI-H1623 | 0.525 | 0.414 | 0.447 | 0.424 | 0.506 |  |  |  |  |  | 0.465 | 0.408 | 0.514 | 0.525 | 0.378 | 0.435 | 0.503 | 0.502 | 0.559 | 0.439 |
| NCI-H2347 | 0.472 | 0.496 | 0.444 | 0.331 | 0.354 | 0.992 | 0.944 | 0.956 | 0.894 | 1.03 | 0.455 | 0.429 | 0.295 | 0.275 | 0.264 | 0.653 | 0.575 | 0.48 | 0.508 | 0.369 |
| PC-14 | 0.785 | 1.19 | 0.78 | 1.01 | 1.16 | 1.06 | 1.02 | 0.93 | 0.936 | 0.94 | 0.548 | 0.585 | 0.317 | 0.586 | 0.74 | 0.148 | 0.154 | 0.177 | 0.243 | 0.198 |
| NCI-H1651 | 0.726 | 0.734 | 0.846 | 0.659 | 0.662 | 1.03 | 1.26 | 0.944 | 0.908 | 1.06 | 0.374 | 0.214 | 0.259 | 0.239 | 0.261 | 0.861 | 0.6 | 0.67 | 0.797 | 0.716 |
| HARA | 0.548 | 0.565 | 0.513 | 0.506 | 0.489 | 1.08 | 1.01 | 0.919 | 0.924 | 1.01 | 0.365 | 0.378 | 0.309 | 0.234 | 0.246 | 0.783 | 0.761 | 0.637 |  | 0.617 |
| NCI-H1650 | 0.788 | 0.657 | 0.755 | 0.817 | 0.631 |  |  |  |  |  | 0.536 | 0.473 | 0.457 | 0.506 | 0.46 | 0.207 | 0.182 | 0.214 | 0.2 | 0.199 |
| NCI-H1395 | 0.658 | 0.603 | 0.409 | 0.578 | 0.58 | 0.965 | 0.902 | 0.917 | 0.988 | 0.89 | 0.336 | 0.316 | 0.298 | 0.314 | 0.312 | 0.757 | 0.655 | 0.744 | 0.763 | 0.714 |
| LU99A | 0.339 | 0.335 | 0.347 | 0.309 | 0.294 | 0.592 | 0.542 | 0.522 | 0.583 | 0.567 | 0.84 | 1.06 | 0.798 | 0.898 | 0.927 | 0.244 | 0.286 | 0.239 | 0.236 | 0.25 |
| NCI-H1355 | 0.458 | 0.441 | 0.425 | 0.464 | 0.39 | 0.889 | 0.927 | 0.867 | 0.791 | 0.785 | 0.493 | 0.473 | 0.429 | 0.481 | 0.453 | 0.703 | 0.72 | 0.693 | 0.722 | 0.72 |
| HCC-78 | 0.388 | 0.38 | 0.343 | 0.357 | 0.374 | 0.483 | 0.548 | 0.587 | 0.505 | 0.377 | 0.795 | 0.842 | 0.574 | 0.671 | 0.575 |  |  |  |  |  |
| NCI-H1563 | 0.802 | 0.76 | 0.738 | 0.779 | 0.741 | 1.15 | 1.24 | 1.26 | 1.23 | 1.23 | 0.667 | 0.666 | 0.729 | 0.711 | 0.667 | 0.538 | 0.563 | 0.558 | 0.508 | 0.536 |
| HCC-15 | 0.707 | 0.705 | 0.691 | 0.737 | 0.784 | 0.932 | 0.937 | 0.871 | 0.942 | 0.855 | 0.486 | 0.49 | 0.46 | 0.482 | 0.518 | 0.246 | 0.251 | 0.178 |  | 0.314 |
